From patent publication US8653076B2, “Oxo-substituted imidazo[1,2B]pyridazines, their preparation and use as pharmaceuticals” (Bayer Intellectual Property GmbH, priority 2006, dated 2014)

What was measured:
protein kinase C theta = molecular target: T1, protein kinase C theta (Homo sapiens, UniProt Q04759); assay: PKC-theta HTRF kinase assay; type: biochemical; settings: recombinant PKC-theta, 10 μM ATP, read-out: Inhibition of PKC theta IC50
T1 construct: purchased ProQinase (Freiburg)
Experimental: Inhibition of the enzymic activity of the protein kinase C theta was determined with the aid of the PKC-theta HTRF assay.
Recombinant PKC-theta protein was purchased from ProQinase (Freiburg). The kinase substrate used was the biotinylated peptide having the amino acid sequence biotin-RFARKGSLRQKNVHEVK, which was purchased from Biosynthan (Berlin).
PKC-theta [0.7 nM in the assay mixture, assay volume 5 μl] was incubated at 22° C. for 15 min in the presence of various concentrations of test substances (0 μM, and 10 measurement points within the range 0.001-20 μM in duplicates) in assay buffer [50 mM Hepes/NaOH pH 7.4, 1.0 mM MnCl2, 10.0 mM MgCl2, 1.0 mM dithiothreitol, 0.1 mM sodium orthovanadate, 10 μM adenosine triphosphate (ATP), 0.5 μM substrate peptide, 0.1 mg/ml phosphatidyl serine, 0.01 mg/ml diacylglycerol, 1% (v/v) dimethyl sulfoxide]. The reaction was stopped by adding 5 μl of an EDTA/detection solution [50 mM Hepes/NaOH pH 7.4, 400 mM KF, 40 mM EDTA, 0.1% bovine serum albumin, 100 nM streptavidin-XLlent (from Cisbio, #611SAXLB), 1.8 nM anti-phospho PKC substrate crypate conjugate antibody (CisBio: #61P03KAZ)]. […]

[1] = test system: interleukin 2 (IL-2) secretion; assay: anti-CD3/anti-CD28 antibody-induced IL-2 secretion in human PBMC (ELISA); type: cell-based; settings: human PBMC stimulated with anti-CD3 and anti-CD28, 20 hours
Experimental: The extent to which test substance influence antibody-induced interleukin 2 (IL-2) secretion was investigated in the following test system. IL-2 represents a central cytokine which is produced and released by activated T cells. IL-2 synthesis in the T cells is regulated by a plurality of kinases. An inhibitory effect of substances on kinases leads inter alia to inhibition of IL-2 synthesis and inhibition of the T cell immune response. The cytokine determinations were carried out using an ELISA kit.
Peripheral blood mononuclear cells (PBMC) were isolated from heparinized human whole blood by gradient centrifugation using Histopaque 1077 (Sigma) at room temperature, and the erythrocytes were lyzed hypotonically and, after washing twice in PBS, taken up in cell culture medium (10% fetal inactivated calf serum in RPMI-1640+Glutamax-I [Gibco]).
The 96 well culture plates (Costar) were previously incubated with 100 μl of antibody solution in PBS 0.1 μg/ml in PBS [Gibco]) per well at 4° C. for 18 hours. The antibodies used were anti-CD3 and anti-CD28 monoclonal antibodies (PharMingen). After washing with PBS three times, the plates were charged with 200 μl of the cell suspension (40 000 cells/well). […]
Interleukin-2 was determined using an ELISA kit (Bioscience), and the absorption of the color change was analyzed in a SpectraMax 340 PC (wavelength 450 nm). […]

T1 sequence (Q04759 whole entry): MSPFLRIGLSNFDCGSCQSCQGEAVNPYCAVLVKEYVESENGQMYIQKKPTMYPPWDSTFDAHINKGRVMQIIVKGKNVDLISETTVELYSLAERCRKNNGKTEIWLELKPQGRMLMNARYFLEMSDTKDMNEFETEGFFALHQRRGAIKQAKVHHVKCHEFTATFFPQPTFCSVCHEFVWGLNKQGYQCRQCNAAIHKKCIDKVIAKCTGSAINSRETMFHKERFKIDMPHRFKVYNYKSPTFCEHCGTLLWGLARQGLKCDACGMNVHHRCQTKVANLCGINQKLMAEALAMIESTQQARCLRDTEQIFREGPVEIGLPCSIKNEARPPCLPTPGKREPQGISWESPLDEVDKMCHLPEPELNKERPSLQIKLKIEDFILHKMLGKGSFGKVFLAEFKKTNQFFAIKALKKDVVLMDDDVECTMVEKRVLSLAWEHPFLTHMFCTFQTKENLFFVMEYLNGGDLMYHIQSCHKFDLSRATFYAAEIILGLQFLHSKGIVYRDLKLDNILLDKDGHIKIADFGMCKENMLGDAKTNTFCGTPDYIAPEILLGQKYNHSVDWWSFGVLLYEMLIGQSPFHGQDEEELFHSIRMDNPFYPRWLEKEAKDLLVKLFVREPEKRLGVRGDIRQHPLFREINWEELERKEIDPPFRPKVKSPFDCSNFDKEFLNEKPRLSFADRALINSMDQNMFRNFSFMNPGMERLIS

With `Clc1cccc(-c2cnc3ccc(OCCCN4CCOCC4)nn23)c1` [Example 1, 3-(3-Chlorophenyl)-6-(3-morpholin-4-ylpropoxy)imidazo[1,2-b]pyridazine] the IC50 (protein kinase C theta) was 4100 nM, the inhibition at 10 µM ([1]; 10 μM) was over 95% and the IC50 ([1]; IL-2 ELISA, read-out: IC50 (concentration for 50% inhibition of IL-2)) was 1300 nM.
